Laboratory results reported in publication PMC5392334, “Discovery and characterization of a novel irreversible EGFR mutants selective and potent kinase inhibitor CHMFL-EGFR-26 with a distinct binding mode” (Oncotarget, 2017).

How the values were obtained:
[1] = molecular target: T1, SGK (Homo sapiens, UniProt O00141); experiment: KinomeScan; assay type: binding; settings: read-out: % control
T1 construct: purchased DiscoveRx KINOMEscan

[2] = molecular target: T2, ITK (Homo sapiens, UniProt Q08881); experiment: KinomeScan; assay type: binding; settings: read-out: % control
T2 construct: purchased DiscoveRx KINOMEscan

[3] = molecular target: T3, MET (Homo sapiens, UniProt P08581); experiment: KinomeScan; assay type: binding; settings: read-out: % control
T3 construct: purchased DiscoveRx KINOMEscan

[4] = molecular target: T4, ABL1(E255K)-phosphorylated (Homo sapiens, UniProt P00519, E255K); experiment: KinomeScan; assay type: binding; settings: read-out: % control
T4 construct: purchased DiscoveRx KINOMEscan

[5] = molecular target: T5, TEC (Homo sapiens, UniProt P42680); experiment: KinomeScan; assay type: binding; settings: read-out: % control
T5 construct: purchased DiscoveRx KINOMEscan

[6] = molecular target: T6, ABL1(M351T)-phosphorylated (Homo sapiens, UniProt P00519, M351T); experiment: KinomeScan; assay type: binding; settings: read-out: % control
T6 construct: purchased DiscoveRx KINOMEscan

[7] = molecular target: T7, CSNK1G3 (Homo sapiens, UniProt Q9Y6M4); experiment: KinomeScan; assay type: binding; settings: read-out: % control
T7 construct: purchased DiscoveRx KINOMEscan

[8] = molecular target: T8, VRK2 (Homo sapiens, UniProt Q86Y07); experiment: KinomeScan; assay type: binding; settings: read-out: % control
T8 construct: purchased DiscoveRx KINOMEscan

[9] = molecular target: T9, ASK1 (Homo sapiens, UniProt Q99683); experiment: KinomeScan; assay type: binding; settings: read-out: % control
T9 construct: purchased DiscoveRx KINOMEscan

[10] = molecular target: T10, YANK2 (Homo sapiens, UniProt Q9NY57); experiment: KinomeScan; assay type: binding; settings: read-out: % control
T10 construct: purchased DiscoveRx KINOMEscan

[11] = molecular target: T11, ADCK4 (Homo sapiens, UniProt Q96D53); experiment: KinomeScan; assay type: binding; settings: read-out: % control
T11 construct: purchased DiscoveRx KINOMEscan

[12] = system: H1975 tumor xenografts; experiment: H1975 cells inoculated xenograft mouse model; settings: for Tumor weight (final, mean): 21-day treatment
[13] = molecular target: T12, SRMS (Homo sapiens, UniProt Q9H3Y6); experiment: KinomeScan; assay type: binding; settings: read-out: % control
T12 construct: purchased DiscoveRx KINOMEscan

[14] = molecular target: T13, MST1 (Homo sapiens, UniProt Q13043); experiment: KinomeScan; assay type: binding; settings: read-out: % control
T13 construct: purchased DiscoveRx KINOMEscan

[15] = molecular target: T14, FLT3(N841I) (Homo sapiens, UniProt P36888, N841I); experiment: KinomeScan; assay type: binding; settings: read-out: % control
T14 construct: purchased DiscoveRx KINOMEscan

[16] = molecular target: T15, EGFR(G719S) (Homo sapiens, UniProt P00533, G719S); experiment: KinomeScan; assay type: binding; settings: read-out: % control
T15 construct: purchased DiscoveRx KINOMEscan

[17] = molecular target: T16, MEK3 (Homo sapiens, UniProt P46734); experiment: KinomeScan; assay type: binding; settings: read-out: % control
T16 construct: purchased DiscoveRx KINOMEscan

[18] = molecular target: T17, MLCK (Homo sapiens, UniProt Q32MK0); experiment: KinomeScan; assay type: binding; settings: read-out: % control
T17 construct: purchased DiscoveRx KINOMEscan

[19] = molecular target: T18, ERN1 (Homo sapiens, UniProt O75460); experiment: KinomeScan; assay type: binding; settings: read-out: % control
T18 construct: purchased DiscoveRx KINOMEscan

[20] = molecular target: T19, MARK1 (Homo sapiens, UniProt Q9P0L2); experiment: KinomeScan; assay type: binding; settings: read-out: % control
T19 construct: purchased DiscoveRx KINOMEscan

[21] = molecular target: T20, HIPK3 (Homo sapiens, UniProt Q9H422); experiment: KinomeScan; assay type: binding; settings: read-out: % control
T20 construct: purchased DiscoveRx KINOMEscan

[22] = molecular target: T21, MARK3 (Homo sapiens, UniProt P27448); experiment: KinomeScan; assay type: binding; settings: read-out: % control
T21 construct: purchased DiscoveRx KINOMEscan

[23] = molecular target: T22, TRPM6 (Homo sapiens, UniProt Q9BX84); experiment: KinomeScan; assay type: binding; settings: read-out: % control
T22 construct: purchased DiscoveRx KINOMEscan

[24] = molecular target: T23, PAK6 (Homo sapiens, UniProt Q9NQU5); experiment: KinomeScan; assay type: binding; settings: read-out: % control
T23 construct: purchased DiscoveRx KINOMEscan

[25] = molecular target: T24, RIPK5 (Homo sapiens, UniProt Q6XUX3); experiment: KinomeScan; assay type: binding; settings: read-out: % control
T24 construct: purchased DiscoveRx KINOMEscan

[26] = molecular target: T25, TRKA (Homo sapiens, UniProt P04629); experiment: KinomeScan; assay type: binding; settings: read-out: % control
T25 construct: purchased DiscoveRx KINOMEscan

[27] = molecular target: T26, ZAP70 (Homo sapiens, UniProt P43403); experiment: KinomeScan; assay type: binding; settings: read-out: % control
T26 construct: purchased DiscoveRx KINOMEscan

[28] = molecular target: T27, CAMK2D (Homo sapiens, UniProt Q13557); experiment: KinomeScan; assay type: binding; settings: read-out: % control
T27 construct: purchased DiscoveRx KINOMEscan

[29] = molecular target: T28, PIK4CB (Homo sapiens, UniProt Q9UBF8); experiment: KinomeScan; assay type: binding; settings: read-out: % control
T28 construct: purchased DiscoveRx KINOMEscan

[30] = molecular target: T29, LRRK2(G2019S) (Homo sapiens, UniProt Q5S007, G2019S); experiment: KinomeScan; assay type: binding; settings: read-out: % control
T29 construct: purchased DiscoveRx KINOMEscan

[31] = molecular target: T30, IKK-epsilon (Homo sapiens, UniProt Q14164); experiment: KinomeScan; assay type: binding; settings: read-out: % control
T30 construct: purchased DiscoveRx KINOMEscan

[32] = molecular target: T31, RPS6KA5(Kin.Dom.1-N-terminal) (Homo sapiens, UniProt O75582); experiment: KinomeScan; assay type: binding; settings: read-out: % control
T31 construct: RPS6KA5(Kin.Dom.1-N-terminal); purchased DiscoveRx KINOMEscan

[33] = molecular target: T32, PIK3CA(C420R) (Homo sapiens, UniProt P42336, C420R); experiment: KinomeScan; assay type: binding; settings: read-out: % control
T32 construct: purchased DiscoveRx KINOMEscan

[34] = molecular target: T33, LYN (Homo sapiens, UniProt P07948); experiment: KinomeScan; assay type: binding; settings: read-out: % control
T33 construct: purchased DiscoveRx KINOMEscan

[35] = molecular target: T34, PCTK2 (Homo sapiens, UniProt Q00537); experiment: KinomeScan; assay type: binding; settings: read-out: % control
T34 construct: purchased DiscoveRx KINOMEscan

[36] = molecular target: T35, INSR (Homo sapiens, UniProt P06213); experiment: KinomeScan; assay type: binding; settings: read-out: % control
T35 construct: purchased DiscoveRx KINOMEscan

[37] = molecular target: T36, MEK4 (Homo sapiens, UniProt P45985); experiment: KinomeScan; assay type: binding; settings: read-out: % control
T36 construct: purchased DiscoveRx KINOMEscan

[38] = molecular target: T37, PRKD3 (Homo sapiens, UniProt O94806); experiment: KinomeScan; assay type: binding; settings: read-out: % control
T37 construct: purchased DiscoveRx KINOMEscan

[39] = molecular target: T38, DCAMKL2 (Homo sapiens, UniProt Q8N568); experiment: KinomeScan; assay type: binding; settings: read-out: % control
T38 construct: purchased DiscoveRx KINOMEscan

[40] = molecular target: T39, FYN (Homo sapiens, UniProt P06241); experiment: KinomeScan; assay type: binding; settings: read-out: % control
T39 construct: purchased DiscoveRx KINOMEscan

[41] = molecular target: T40, AURKA (Homo sapiens, UniProt O14965); experiment: KinomeScan; assay type: binding; settings: read-out: % control
T40 construct: purchased DiscoveRx KINOMEscan

[42] = H1975 xenograft, 25.0 mg/kg/d oral
[43] = H1975 xenograft, 50.0 mg/kg/d oral
[44] = H1975 xenograft, 100 mg/kg/d oral

T35 sequence (P06213 28-1382): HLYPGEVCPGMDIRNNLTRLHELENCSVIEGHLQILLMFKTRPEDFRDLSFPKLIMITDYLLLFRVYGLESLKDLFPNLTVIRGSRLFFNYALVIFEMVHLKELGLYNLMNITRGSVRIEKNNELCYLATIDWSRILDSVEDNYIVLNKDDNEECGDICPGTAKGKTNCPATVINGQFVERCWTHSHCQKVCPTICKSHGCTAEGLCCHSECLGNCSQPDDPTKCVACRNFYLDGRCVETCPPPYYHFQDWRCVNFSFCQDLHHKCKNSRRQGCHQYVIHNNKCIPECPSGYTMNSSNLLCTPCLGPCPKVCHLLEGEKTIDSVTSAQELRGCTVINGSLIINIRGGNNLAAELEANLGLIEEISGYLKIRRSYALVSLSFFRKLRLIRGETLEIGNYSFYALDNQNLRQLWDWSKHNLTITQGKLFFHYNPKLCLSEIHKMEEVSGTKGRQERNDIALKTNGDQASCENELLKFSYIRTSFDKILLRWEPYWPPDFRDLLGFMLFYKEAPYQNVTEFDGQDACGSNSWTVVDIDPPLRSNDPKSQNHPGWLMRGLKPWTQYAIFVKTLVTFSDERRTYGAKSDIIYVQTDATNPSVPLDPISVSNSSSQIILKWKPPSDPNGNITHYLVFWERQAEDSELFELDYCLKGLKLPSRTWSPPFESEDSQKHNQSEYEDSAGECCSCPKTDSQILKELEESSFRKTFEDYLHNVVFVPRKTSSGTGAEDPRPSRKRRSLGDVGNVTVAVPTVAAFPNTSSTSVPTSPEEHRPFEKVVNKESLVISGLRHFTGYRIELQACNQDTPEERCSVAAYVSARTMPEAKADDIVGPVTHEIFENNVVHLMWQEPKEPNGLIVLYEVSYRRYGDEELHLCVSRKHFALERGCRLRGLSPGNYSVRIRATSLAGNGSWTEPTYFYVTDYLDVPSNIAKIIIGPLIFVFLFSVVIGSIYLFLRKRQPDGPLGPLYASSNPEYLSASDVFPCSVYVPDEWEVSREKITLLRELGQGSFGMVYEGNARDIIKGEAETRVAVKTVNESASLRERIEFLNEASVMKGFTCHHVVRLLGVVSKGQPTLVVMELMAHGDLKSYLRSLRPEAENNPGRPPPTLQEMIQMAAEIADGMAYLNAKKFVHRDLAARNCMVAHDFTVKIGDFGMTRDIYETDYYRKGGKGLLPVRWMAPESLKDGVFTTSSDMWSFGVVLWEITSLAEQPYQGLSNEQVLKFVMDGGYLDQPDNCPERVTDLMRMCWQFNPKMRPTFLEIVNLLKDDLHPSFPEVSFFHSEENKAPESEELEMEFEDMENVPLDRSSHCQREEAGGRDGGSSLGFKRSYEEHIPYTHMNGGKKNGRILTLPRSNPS
T11 sequence (Q96D53 whole entry): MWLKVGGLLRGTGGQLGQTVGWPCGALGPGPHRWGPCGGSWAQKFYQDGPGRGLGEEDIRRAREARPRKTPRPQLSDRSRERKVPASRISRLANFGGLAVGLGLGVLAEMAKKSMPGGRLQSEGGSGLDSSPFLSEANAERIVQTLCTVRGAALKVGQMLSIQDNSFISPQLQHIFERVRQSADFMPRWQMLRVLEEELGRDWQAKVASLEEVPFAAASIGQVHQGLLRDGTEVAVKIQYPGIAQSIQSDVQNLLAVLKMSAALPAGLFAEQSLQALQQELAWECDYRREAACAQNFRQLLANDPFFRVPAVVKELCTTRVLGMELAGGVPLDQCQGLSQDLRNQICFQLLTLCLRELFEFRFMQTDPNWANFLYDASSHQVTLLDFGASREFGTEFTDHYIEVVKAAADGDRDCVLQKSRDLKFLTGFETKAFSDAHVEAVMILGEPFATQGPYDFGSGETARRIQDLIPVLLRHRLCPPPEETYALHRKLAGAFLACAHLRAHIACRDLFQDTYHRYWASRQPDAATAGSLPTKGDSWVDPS
T38 sequence (Q8N568 whole entry): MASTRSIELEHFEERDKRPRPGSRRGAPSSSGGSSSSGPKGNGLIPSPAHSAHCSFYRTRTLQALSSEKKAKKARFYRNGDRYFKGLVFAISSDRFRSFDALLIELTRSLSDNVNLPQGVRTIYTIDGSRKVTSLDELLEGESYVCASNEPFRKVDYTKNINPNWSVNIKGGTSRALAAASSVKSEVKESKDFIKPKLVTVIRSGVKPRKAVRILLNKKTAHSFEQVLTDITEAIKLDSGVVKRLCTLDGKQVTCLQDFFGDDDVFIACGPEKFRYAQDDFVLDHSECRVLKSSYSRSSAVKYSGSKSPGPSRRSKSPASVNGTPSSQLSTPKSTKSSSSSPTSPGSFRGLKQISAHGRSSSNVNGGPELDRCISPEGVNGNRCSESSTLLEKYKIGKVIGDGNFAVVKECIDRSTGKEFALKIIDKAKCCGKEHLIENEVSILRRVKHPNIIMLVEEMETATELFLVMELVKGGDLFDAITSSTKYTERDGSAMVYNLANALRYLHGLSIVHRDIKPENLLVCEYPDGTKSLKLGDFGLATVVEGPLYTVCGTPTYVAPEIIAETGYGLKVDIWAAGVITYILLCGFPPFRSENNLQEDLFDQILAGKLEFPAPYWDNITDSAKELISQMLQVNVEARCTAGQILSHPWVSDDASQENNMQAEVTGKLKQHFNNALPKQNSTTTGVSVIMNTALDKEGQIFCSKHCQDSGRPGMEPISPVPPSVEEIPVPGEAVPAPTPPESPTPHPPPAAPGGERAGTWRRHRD
T39 sequence (P06241 whole entry): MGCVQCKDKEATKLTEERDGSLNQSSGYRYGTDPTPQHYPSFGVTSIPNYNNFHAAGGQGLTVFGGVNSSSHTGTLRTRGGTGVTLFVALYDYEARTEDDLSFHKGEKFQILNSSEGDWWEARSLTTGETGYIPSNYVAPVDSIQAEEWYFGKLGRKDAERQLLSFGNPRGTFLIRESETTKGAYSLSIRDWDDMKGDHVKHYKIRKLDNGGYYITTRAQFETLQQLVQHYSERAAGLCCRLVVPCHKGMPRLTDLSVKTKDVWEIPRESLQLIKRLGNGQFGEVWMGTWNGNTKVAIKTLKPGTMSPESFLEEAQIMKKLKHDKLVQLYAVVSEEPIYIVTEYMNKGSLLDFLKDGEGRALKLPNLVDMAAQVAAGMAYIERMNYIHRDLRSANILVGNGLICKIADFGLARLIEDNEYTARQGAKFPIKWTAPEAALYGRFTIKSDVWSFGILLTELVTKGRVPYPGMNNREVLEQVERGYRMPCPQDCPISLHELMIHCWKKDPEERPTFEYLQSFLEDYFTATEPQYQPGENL
T16 sequence (P46734 whole entry): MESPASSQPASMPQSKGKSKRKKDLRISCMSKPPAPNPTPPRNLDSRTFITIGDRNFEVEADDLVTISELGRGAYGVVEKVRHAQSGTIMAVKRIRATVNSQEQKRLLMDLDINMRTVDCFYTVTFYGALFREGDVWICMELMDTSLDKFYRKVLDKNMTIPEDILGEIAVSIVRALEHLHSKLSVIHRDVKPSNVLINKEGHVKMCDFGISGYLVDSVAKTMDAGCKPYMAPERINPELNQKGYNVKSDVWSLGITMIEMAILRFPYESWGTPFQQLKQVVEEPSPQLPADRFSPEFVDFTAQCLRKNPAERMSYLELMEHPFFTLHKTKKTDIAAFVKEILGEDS
T5 sequence (P42680 whole entry): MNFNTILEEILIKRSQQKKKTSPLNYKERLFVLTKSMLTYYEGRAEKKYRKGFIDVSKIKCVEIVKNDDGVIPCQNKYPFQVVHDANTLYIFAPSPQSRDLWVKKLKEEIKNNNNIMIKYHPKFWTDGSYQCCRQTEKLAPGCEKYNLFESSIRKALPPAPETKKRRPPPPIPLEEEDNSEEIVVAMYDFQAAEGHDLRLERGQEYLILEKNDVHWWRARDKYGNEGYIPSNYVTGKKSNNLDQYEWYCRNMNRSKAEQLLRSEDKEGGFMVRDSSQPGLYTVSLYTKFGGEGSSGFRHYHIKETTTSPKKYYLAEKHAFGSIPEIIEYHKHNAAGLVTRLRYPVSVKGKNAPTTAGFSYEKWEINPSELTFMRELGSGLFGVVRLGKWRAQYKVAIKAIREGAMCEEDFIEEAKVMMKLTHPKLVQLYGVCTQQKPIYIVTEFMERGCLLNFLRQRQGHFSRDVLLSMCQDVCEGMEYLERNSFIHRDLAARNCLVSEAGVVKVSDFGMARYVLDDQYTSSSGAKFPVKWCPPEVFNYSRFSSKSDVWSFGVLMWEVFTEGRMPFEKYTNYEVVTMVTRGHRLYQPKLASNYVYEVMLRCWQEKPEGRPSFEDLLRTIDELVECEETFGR
T33 sequence (P07948 whole entry): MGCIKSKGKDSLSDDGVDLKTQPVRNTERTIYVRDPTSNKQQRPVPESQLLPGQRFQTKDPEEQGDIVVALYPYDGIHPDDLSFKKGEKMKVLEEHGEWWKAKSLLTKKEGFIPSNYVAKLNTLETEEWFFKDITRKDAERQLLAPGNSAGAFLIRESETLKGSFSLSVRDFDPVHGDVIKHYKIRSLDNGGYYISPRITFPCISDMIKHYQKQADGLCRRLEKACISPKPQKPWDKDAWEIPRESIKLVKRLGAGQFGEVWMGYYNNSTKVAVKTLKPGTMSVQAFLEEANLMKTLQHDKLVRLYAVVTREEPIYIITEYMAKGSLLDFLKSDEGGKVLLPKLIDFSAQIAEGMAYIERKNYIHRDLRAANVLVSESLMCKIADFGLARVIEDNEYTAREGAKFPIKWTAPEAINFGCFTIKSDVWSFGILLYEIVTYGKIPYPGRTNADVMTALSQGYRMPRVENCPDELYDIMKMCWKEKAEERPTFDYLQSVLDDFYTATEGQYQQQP

SMILES: C=CC(=O)N1CCC[C@@H](n2nc(-c3ccc(OCc4cccc(C)n4)c(Cl)c3)c3c(N)ncnc32)C1 [CHMFL-EGFR-26]
- remaining binding at 1 µM [1]: 100%
- remaining binding at 1 µM [2]: 96%
- remaining binding at 1 µM [3]: 96%
- remaining binding at 1 µM [4]: 98%
- remaining binding at 1 µM [5]: 13%
- remaining binding at 1 µM [6]: 100%
- remaining binding at 1 µM [7]: 98%
- remaining binding at 1 µM [8]: 95%
- remaining binding at 1 µM [9]: 97%
- remaining binding at 1 µM [10]: 5.8%
- remaining binding at 1 µM [11]: 100%
- TGI (tumor growth inhibition rate) [12, 42]: 23.0%
- Tumor weight (final, mean) [12, 42]: 1.37 g
- TGI (tumor growth inhibition rate) [12, 43]: 48.9%
- Tumor weight (final, mean) [12, 43]: 0.91 g
- TGI (tumor growth inhibition rate) [12, 44]: 60.1%
- Tumor weight (final, mean) [12, 44]: 0.71 g
- toxicity (body weight) ([12]; H1975 xenograft, oral 25, 50 and 100mg/kg/day): did not show any apparent toxicity
- hyperglycemia ([12]; preclinical mouse model study): no hyperglycemia phenomenon was observed
- remaining binding at 1 µM [13]: 11%
- remaining binding at 1 µM [14]: 61%
- remaining binding at 1 µM [15]: 93%
- remaining binding at 1 µM [16]: 18%
- remaining binding at 1 µM [17]: 98%
- remaining binding at 1 µM [18]: 100%
- remaining binding at 1 µM [19]: 81%
- remaining binding at 1 µM [20]: 100%
- remaining binding at 1 µM [21]: 100%
- remaining binding at 1 µM [22]: 100%
- remaining binding at 1 µM [23]: 100%
- remaining binding at 1 µM [24]: 74%
- remaining binding at 1 µM [25]: 13%
- remaining binding at 1 µM [26]: 55%
- remaining binding at 1 µM [27]: 100%
- remaining binding at 1 µM [28]: 91%
- remaining binding at 1 µM [29]: 100%
- remaining binding at 1 µM [30]: 100%
- remaining binding at 1 µM [31]: 100%
- remaining binding at 1 µM [32]: 100%
- remaining binding at 1 µM [33]: 100%
- remaining binding at 1 µM [34]: 94%
- remaining binding at 1 µM [35]: 89%
- remaining binding at 1 µM [36]: 100%
- remaining binding at 1 µM [37]: 80%
- remaining binding at 1 µM [38]: 92%
- remaining binding at 1 µM [39]: 95%
- remaining binding at 1 µM [40]: 90%
- remaining binding at 1 µM [41]: 97%
